Structures are written as SMILES.

One test has as its target BCLXL (Homo sapiens, UniProt Q07817, V10N/V9A). Put plainly: Fluorescence polarisation assay (PUMA-based probe displacement). Note: 20 nM protein, 10 nM fluorescent probe. The class given is binding. How it is done:
Fluorescence polarization measures the rotation of a fluorescing species in solution, the larger the molecule the more polarized the fluorescence emission.
[[…]] (GST UniProtKB® primary accession number P08515 and BCLXL UniProtKB® primary accession number Q07817-1),
resulting in an increase in anisotropy. If a compound is added which competitively binds to the same site as the probe, thereby releasing it, anisotropy decreases due to the increased amount of free probe.
An 11-point serial dilution of each compound was prepared in DMSO, the final buffer conditions were 10 mM 4-(2-hydroxyethyl)-1-piperazineethanesulfonic acid [HEPES], 150 mM NaCl, 0.05% Tween 20, pH 7.4 and 5% DMSO. The final protein concentration in the assay was 20 nM with the fluorescent probe present at 10 nM. The experiments were incubated for 2 hours at 23° C. before fluorescence polarization was measured on a Biotek SynergyNeo plate reader (Excitation 485 nm, emission 525 nm, parallel and perpendicular reads). […] The KI values were determined from the IC50 values according to Cer et al, Nucleic Acids Res, 2009, Jul. 1: 37(WebServer issue): W441-W445.
(Polarisation of emitted light reports the rotation of a fluorescent probe.)

Another test has as its system H146 cells. Put plainly: H146 cell viability, MTT assay. The test is classed as cell-based. The following applies: Homo sapiens, NCI-H146, 48 h, 48 h exposure. How it is done: (§1) MTT colorimetric assay is based on the mitochondrial reduction of tetrazolium salt by living cells. The viable cell number is proportional to the production of formazan salts, which can be read spectrophotometrically at 540 nm.
(§2) MOLT-4 and H146 cells were purchased from ATCC and cultivated in RPMI 1640 supplemented with 10% heat inactivated fetal bovine serum, penicillin (100 IU/ml), streptomycin (100 μg/ml) and L-glutamine (2 mM). Cells were cultured at 37° C. in a humidified atmosphere containing 5% CO2. Cells were seeded in 96 microwell plates (150 μL per well) and exposed to the compounds for 48 h (3.16 fold serially diluted; 9 concentrations each, triplicates). At the end of incubation time, 15 μL of MTT solution (5 mg/ml) were added per well and the cells were incubated for another 4 h. Then, 100 μL of 10% Sodium Dodecyl Sulfate (SDS)/HCl 10 mM were added per well and the plate was incubated overnight, before measurement of optical density at 540 nm. IC50s were calculated using standard four-parametric curve fitting.
In general terms: Tetrazolium assays rely on reduction of a dye to a coloured formazan, in cell work by metabolically active cells.

The next test has as its system MOLT-4 cells. Put plainly: MOLT-4 cell viability, MTT assay. The class given is cell-based. As to conditions: Homo sapiens, MOLT-4, 48 h, 48 h exposure. As to the method: as §1, §2

BCLXL, sequence (Q07817 with tags, fused parts or gaps V9A/V10N): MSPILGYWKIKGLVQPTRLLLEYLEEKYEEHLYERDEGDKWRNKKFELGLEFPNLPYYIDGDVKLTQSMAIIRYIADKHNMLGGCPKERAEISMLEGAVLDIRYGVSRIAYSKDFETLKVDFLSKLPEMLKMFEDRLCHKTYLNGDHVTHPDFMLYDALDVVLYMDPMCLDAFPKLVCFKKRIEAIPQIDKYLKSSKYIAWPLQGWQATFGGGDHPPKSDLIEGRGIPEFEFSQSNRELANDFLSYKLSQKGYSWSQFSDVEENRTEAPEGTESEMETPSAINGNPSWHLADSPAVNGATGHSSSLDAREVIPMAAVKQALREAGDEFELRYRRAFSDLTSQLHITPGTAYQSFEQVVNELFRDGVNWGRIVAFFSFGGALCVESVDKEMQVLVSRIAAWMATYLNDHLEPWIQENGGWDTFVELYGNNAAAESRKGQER

On to `Cc1c(Nc2cccc(C(=O)O)n2)nnc(Nc2nc3ccccc3s2)c1C` [Example 2, 6-({6-[(1,3-Benzothiazol-2-yl)amino]-4,5-dimethylpyridazin-3-yl}amino)pyridine-2-carboxylic acid], for which the Ki (in general, a dissociation constant, usually derived from enzyme kinetics or from competition with a known ligand) at BCLXL worked out at 330 nM. For the same compound, half-maximal inhibition in the test on H146 cells (IC50) required 12500 nM.

As to `CC(C)c1cc(Nc2nc(C(=O)O)cs2)nnc1Nc1nc2ccccc2s1` [Example 5, 2-({6-[(1,3-Benzothiazol-2-yl)amino]-5-(propan-2-yl)pyridazin-3-yl}amino)-1,3-thiazole-4-carboxylic acid], the Ki on BCLXL came to 180 nM. Moreover, in the test with H146 cells, inhibition was half-maximal at 8210 nM (IC50).

`CC(C)c1cc(Nc2nc3ccccc3s2)nnc1Nc1nc(C(=O)O)cs1` [Example 6, 2-({6-[(1,3-Benzothiazol-2-yl)amino]-4-(propan-2-yl)pyridazin-3-yl}amino)-1,3-thiazole-4-carboxylic acid]: the inhibition constant (Ki) on BCLXL stood at 490 nM. Further, in the test on H146 cells, the IC50 – broadly, the concentration at which inhibition is half-maximal – is more than 44900 nM.

Turning to `Cc1c(Nc2nc3ccccc3s2)nnc(Nc2nc(C(=O)O)cs2)c1C(C)C` [Example 8, 2-({6-[(1,3-Benzothiazol-2-yl)amino]-5-methyl-4-(propan-2-yl)pyridazin-3-yl}amino)-1,3-thiazole-4-carboxylic acid], the inhibition constant (Ki) on BCLXL is 87 nM. In the test on H146 cells, half-maximal inhibition (IC50) was put at 10500 nM.

For `Cc1c(Nc2nc(C(=O)O)c(CCCOc3ccccc3)s2)nnc(Nc2nc3ccccc3s2)c1C` [Example 9, 2-({6-[(1,3-Benzothiazol-2-yl)amino]-4,5-dimethylpyridazin-3-yl}amino)-5-(3-phenoxypropyl)-1,3-thiazole-4-carboxylic acid], the inhibition constant Ki at BCLXL amounted to 4 nM. In addition, the values for the half-inhibitory concentration (IC50) in the test on MOLT-4 cells and in the test with H146 cells were 2320 nM and 207 nM, respectively.

As for `Cc1c(Nc2nc(C(=O)O)cs2)nnc(Nc2nc3ccccc3s2)c1C(C)C` [Example 10, 2-({6-[(1,3-Benzothiazol-2-yl)amino]-4-methyl-5-(propan-2-yl)pyridazin-3-yl}amino)-1,3-thiazole-4-carboxylic add], the Ki at BCLXL is 410 nM. Further, the IC50 in the test on H146 cells was determined as 8310 nM.

For the compound `COCCCc1sc(Nc2nnc(Nc3nc4ccccc4s3)c(C)c2C)nc1C(=O)O` [Example 12], the Ki at BCLXL was 27 nM. Also, the values for the half-maximal inhibitory concentration (IC50) with MOLT-4 cells and in the test with H146 cells were 1620 nM and 913 nM, respectively.

Regarding `Cc1c(Nc2nc(C(=O)O)c(CCCOc3ccccc3F)s2)nnc(Nc2nc3ccccc3s2)c1C` [Example 13, 2-({6-[(1,3-Benzothiazol-2-yl)amino]-4,5-dimethylpyridazin-3-yl}amino)-5-[3-(2-fluorophenoxy)propyl]-1,3-thiazole-4-carboxylic acid], the inhibitory constant (Ki) on BCLXL came out at 3.8 nM. Moreover, the IC50 was 2230 nM in the test with MOLT-4 cells and 292 nM in the test on H146 cells.

As for `Cc1c(Nc2nc(C(=O)O)c(CCCOc3ccc(C(=O)N(C)C)cc3F)s2)nnc(Nc2nc3ccccc3s2)c1C` [Example 14, 2-({6-[(1,3-Benzothiazol-2-yl)amino]-4,5-dimethylpyridazin-3-yl}amino)-5-{3-[4-(dimethylcarbamoyl)-2-fluorophenoxy]propyl}-1,3-thiazole-4-carboxylic acid], the inhibition constant (Ki) at BCLXL is 3.2 nM. The compound further returned a half-inhibitory concentration (IC50) with H146 cells of 2110 nM.

Consider `CCc1c(Nc2nc(C(=O)O)cs2)nnc(Nc2nc3ccccc3s2)c1C` [Example 15, 2-({6-[(1,3-Benzothiazol-2-yl)amino]-4-ethyl-5-methylpyridazin-3-yl}amino)-1,3-thiazole-4-carboxylic acid], for which the Ki on BCLXL came to 37 nM. This compound also displayed an IC50 in the test on H146 cells of more than 15000 nM.

In the case of `CCc1c(Nc2nc3ccccc3s2)nnc(Nc2nc(C(=O)O)cs2)c1C` [Example 16, 2-({6-[(1,3-Benzothiazol-2-yl)amino]-5-ethyl-4-methylpyridazin-3-yl}amino)-1,3-thiazole-4-carboxylic acid], the inhibition constant (Ki) on BCLXL turned out to be 52 nM. The compound further showed an IC50 with H146 cells of 8040 nM.

Take `Cc1c(Nc2nc3ccccc3s2)nnc(Nc2nc(C(=O)O)cs2)c1CO` [Example 18, 2-({6-[(1,3-Benzothiazol-2-yl)amino]-4-(hydroxymethyl)-5-methylpyridazin-3-yl}amino)-1,3-thiazole-4-carboxylic acid]: the Ki on BCLXL amounted to 78 nM. Further, the concentration for half-maximal inhibition (IC50) with H146 cells is more than 15000 nM.

For the compound `Cc1c(Nc2nc3ccccc3s2)nnc(Nc2nc(C(=O)O)cs2)c1C1CC1` [Example 19, 2-({6-[(1,3-Benzothiazol-2-yl)amino]-4-cyclopropyl-5-methylpyridazin-3-yl}amino)-1,3-thiazole-4-carboxylic acid], on BCLXL, the Ki amounted to 30 nM. The compound further had an IC50 in the test on H146 cells not below 12800 nM.

As for `Cc1c(Nc2nc(C(=O)O)c(CCCOc3ccc(CCCN(C)C)cc3F)s2)nnc(Nc2nc3ccccc3s2)c1C` [Example 22, 2-({6-[(1,3-Benzothiazol-2-yl)amino]-4,5-dimethylpyridazin-3-yl}amino)-5-(3-{4-[3-(dimethylamino)propyl]-2-fluorophenoxy}propyl)-1,3-thiazole-4-carboxylic acid], the inhibition constant Ki on BCLXL amounted to 2.9 nM. In addition, the 50% inhibitory concentration (IC50) with H146 cells was found to be 2130 nM.

For `O=C(O)c1csc(Nc2nnc(Nc3nc4ccccc4s3)c3c2CCC3)n1` [Example 23, 2-[[1-(1,3-Benzothiazol-2-ylamino)-6,7-dihydro-5H-cyclopenta[d]pyridazin-4-yl]amino]thiazole-4-carboxylic acid], at BCLXL, the inhibition constant Ki came to 40 nM. The IC50 is 13000 nM in the test with MOLT-4 cells and not below 12700 nM in the test with H146 cells.

In the case of `O=C(O)c1cccc(Nc2nnc(Nc3nc4ccccc4s3)c3c2CCCC3)n1` [Example 24, 6-[[4-(1,3-Benzothiazol-2-ylamino)-5,6,7,8-tetrahydrophthalazin-1-yl]amino]pyridine-2-carboxylic acid], the Ki on BCLXL stood at 140 nM. Moreover, the IC50 in the test with MOLT-4 cells stood at 3310 nM; with H146 cells it was 6930 nM.

Consider `O=C(O)c1cccc(Nc2nnc(Nc3nc4ccccc4s3)c3c2CCC3)n1` [Example 25, 6-[[4-(1,3-benzothiazol-2-ylamino)-6,7-dihydro-5H-cyclopenta[d]pyridazin-1-yl]amino]pyridine-2-carboxylic acid], for which the inhibition constant (Ki) on BCLXL came out at 990 nM. The values for the half-maximal inhibitory concentration (IC50) in the test with MOLT-4 cells and in the test on H146 cells were 7130 nM and 3180 nM, respectively.

`Cc1c(Nc2nc(C(=O)O)cs2)nnc(Nc2nc3ccccc3s2)c1CO` [Example 27, 2-({6-[(1,3-Benzothiazol-2-yl)amino]-5-(hydroxymethyl)-4-methylpyridazin-3-yl}amino)-1,3-thiazole-4-carboxylic acid]: the Ki at BCLXL was 310 nM. The values for the IC50 in the test with MOLT-4 cells and with H146 cells were more than 13000 nM and more than 15000 nM, respectively.

On to `Cc1cc(N(C)c2nc(C(=O)O)c(C3CN(S(C)(=O)=O)C3)s2)nnc1Nc1nc2ccccc2s1` [Example 149, 2-({6-[(1,3-Benzothiazol-2-yl)amino]-5-methylpyridazin-3-yl}(methyl)amino)-5-(1-methanesulfonylazetidin-3-yl)-1,3-thiazole-4-carboxylic acid], for which the Ki at BCLXL was 1300 nM.

Take `Cc1cc(N(C)c2nc(C(=O)O)c(C3CN(CC(C)C)C3)s2)nnc1Nc1nc2ccccc2s1` [Example 156, 2-({6-[(1,3-Benzothiazol-2-yl)amino]-5-methylpyridazin-3-yl}(methyl)amino)-5-[1-(2-methylpropyl)azetidin-3-yl]-1,3-thiazole-4-carboxylic acid]: the Ki on BCLXL came to 890 nM.

Regarding `Cc1cc(N(C)c2nc(C(=O)O)c(C3CN(C)C3)s2)nnc1Nc1nc2ccccc2s1` [Example 157, 2-({6-[(1,3-Benzothiazol-2-yl)amino]-5-methylpyridazin-3-yl}(methyl)amino)-5-(1-methylazetidin-3-yl)-1,3-thiazole-4-carboxylic acid], the Ki at BCLXL turned out to be 1200 nM.

For the compound `Cc1cc(N(CCCC(=O)O)c2nc(C(=O)O)cs2)nnc1Nc1nc2ccccc2s1` [Example 158, 2-({6-[(1,3-Benzothiazol-2-yl)amino]-5-methylpyridazin-3-yl}(3-carboxypropyl)amino)-1,3-thiazole-4-carboxylic acid], the Ki on BCLXL came to 43 nM.

As to `Cc1cc(N(C)c2nc(C(=O)O)c(C3CN(C(=O)NCc4ccccc4)C3)s2)nnc1Nc1nc2ccccc2s1` [Example 159, 2-({6-[(1,3-Benzothiazol-2-yl)amino]-5-methylpyridazin-3-yl}(methyl)amino)-5-[1-(benzylcarbamoyl)azetidin-3-yl]-1,3-thiazole-4-carboxylic acid], at BCLXL, the inhibitory constant (Ki) turned out to be 180 nM.

For `CCNC(=O)N1CC(c2sc(N(C)c3cc(C)c(Nc4nc5ccccc5s4)nn3)nc2C(=O)O)C1` [Example 160, 2-({6-[(1,3-Benzothiazol-2-yl)amino]-5-methylpyridazin-3-yl}(methyl)amino)-5-[1-(ethylcarbamoyl)azetidin-3-yl]-1,3-thiazole-4-carboxylic acid], on BCLXL, the Ki stood at 220 nM.
